Read-outs that look alike come from different tables or passages of the source. Peptide text beside a SMILES is read from it.
Tests used:
[1] = system: methicillin-resistant Staphylococcus aureus (MRSA, No. 164 strain); assay: Treatment effect test on mice infected by MRSA, bacterial count in intestine content; assay type: in vivo; conditions: mice, oral 100 mg/kg
Procedure: The following test was performed to evaluate the treatment effect on mice infected by bacterial (MRSA) of sample 22 obtained by synthesis.
Mice (ICR, SLC, male, 5 weeks old) were prepared by rearing on drinking water mixed with amphotericin B (AMPH: product of Bristol-Myers Company) and tetracycline, such that their concentrations are 10 μg/mL (AMPH) and 2000 μg/mL (tetracycline) respectively, a week before the start of the test, and the immunity of the mice was weaken by administrating 200 mg/kg amount of cyclophosphamide into the abdominal for 3 days from the fourth day prior to the test.
Bacterial suspension prepared by suspending methicillin-resistant Staphylococcus aureus (MRSA, No. 164 strain) in 10% (w/v) of mucin solution was orally administered to the mice at a bacterial administration quantity of 10^8 cells/mouse, thereby eliciting MRSA infection.
One hour after the bacterial inoculation, antimicrobial agent prepared by suspending the test material (therefore polypeptide of sample 22) in 10% of gum arabic solution was orally administered. The administered quantity of suspension was 100 mg/kg. A total of 5 test groups, with each test group containing 5 test mice, were tested. For comparison, antimicrobial agent prepared by suspending vancomycin in 10% of gum arabic solution was orally administered to the test mice under the same conditions.
After the drug administration, test mice were slaughtered approximately 24 hours later, and the contents in the intestine extracted, and the bacterial count of MRSA examined. More specifically, 1.8 mL of physiological saline was added to and mixed with approximately 0.2 g of intestine contents. A fixed quantity of such mixture was smeared on mannitol agar medium (product of Nissui Pharmaceutical Co., Ltd) including gentamicin (GM) with a concentration of […], and cultured for 3 days at 37° C.

[2] = system: Escherichia coli IFO 3972; assay: MIC by liquid medium dilution technique, 96-well microplate, gram-negative bacteria; assay type: cell-based
Procedure: (§1) Regarding the antimicrobial peptide (samples 1 to 20) related to the present invention, the antimicrobial activities (minimum inhibitory concentration: MIC) with respect to gram-negative bacteria (Escherichia coli IFO 3972) and gram-positive bacteria (Staphylococcus aureus IFO 12732) were determined by a liquid medium dilution technique using a 96-well microplate.
(§2) First, a drug (synthesized polypeptide) solution having a concentration of 40 times of the highest test concentration was prepared using sterile distilled water, and liquid-bouillon mediums (more specifically, “Mueller Hinton Broth” manufactured by DIFCO) including cation and having drug concentrations of 100, 50, 25, 12.5, 6.3, 3.1, 1.6 and 0.8 μM were respectively produced. The cation included was prepared as follows: dissolving 3.68 g of CaCl2.2H2O in 100 mL of purified water (10 mg.Ca^2+/mL), and thereafter adding 500 μL thereof into 100 mL of Mueller Hinton Broth; and dissolving 8.36 g of MgCl2.6H2O in 100 mL of purified water (10 mg.Mg^2+/mL), and thereafter adding 250 μL thereof into 100 mL of Mueller Hinton Broth. Thereafter, the produced liquid-bouillon mediums including the drug of each concentration were then fed to the 96-well microplate at […] a time.
(§3) At the same time, test bacteria cultured for 18 hours at 37° C. on an agar plate (“Muller Hinton Agar” manufactured by DIFCO) were gathered by scratching with a loop, and then suspended in a sterilized physiological saline. Bacterial suspension 5 μL prepared at an equivalent of 2×10^7 cells/mL was respectively inoculated (number of bacteria to be tested: approximately 1×10^6 cells/mL) onto the drug solution and fed to each well of the above-described microplate. After inoculation, the microplate was then incubated in an incubator at 37° C., and the presence of bacteria was evaluated based on the turbidity 24 hours later. The minimum drug concentration (polypeptide concentration), in which an increased in turbidity caused by bacteria was not detected at the time of measurement, was defined as MIC (minimum inhibitory concentration) (unit: μM) in the present embodiment. In addition, MIC were determined in the same manner using polymyxin B as a comparison.

[3] = system: Staphylococcus aureus IFO 12732; assay type: cell-based
Procedure: as §1, §2, §3

S. aureus = assay type: cell-based, Staphylococcus aureus
Procedure: as §2, §3
Next, the antimicrobial activities (MIC) against gram-positive bacteria (S. aureus) in the presence of serum were tested with the same method as Example 2. […] Thereafter, the produced liquid-bouillon mediums including the drug and the serum of each concentration were then fed to the 96-well microplate at […] a time, and MIC were determined by the method same as Example 2. Sample X in the table is a mixture of sample 1 and sample 16 based on a mass ratio of 1:1. “-” in the table indicate “untested”.

[4] = Mueller Hinton Broth with cation, 37° C., turbidity after 24 hours

Row | Compound | Antimicrobial Activities (MIC) E. coli ([2]; IFO 3972, 24 h) | Antimicrobial Activities (MIC) S. aureus ([3]; IFO 12732, 24 h) | also measured
1 | CN[C@H](CC(C)C)C(=O)N[C@H]1C(=O)N[C@@H](CC(N)=O)C(=O)N[C@H]2C(=O)N[C@H]3C(=O)N[C@H](C(=O)N[C@H](C(=O)O)c4cc(O)cc(O)c4-c4cc3ccc4O)[C@H](O)c3ccc(c(Cl)c3)Oc3cc2cc(c3O[C@@H]2O[C@H](CO)[C@@H](O)[C@H](O)[C@H]2O[C@H]2C[C@](C)(N)[C@H](O)[C@H](C)O2)Oc2ccc(cc2Cl)[C@H]1O [Vancomycin, vancomycin, reference compound] |  |  | MRSA bacterial quantity in intestine content, administered group 1 ([1]; approximately 24 hours after administration, group 1): 8 ×10^3 cells/g; MRSA bacterial quantity in intestine content, administered group 2 ([1]; approximately 24 hours after administration, group 2): 10 ×10^3 cells/g; MRSA bacterial quantity in intestine content, administered group 3 ([1]; approximately 24 hours after administration, group 3): 43 ×10^3 cells/g; MRSA bacterial quantity in intestine content, administered group 4 ([1]; approximately 24 hours after administration, group 4): 22 ×10^3 cells/g; MRSA bacterial quantity in intestine content, administered group 5 ([1]; approximately 24 hours after administration, group 5): 26 ×10^3 cells/g; MRSA bacterial quantity in intestine content, Average ([1]; average of groups 1-5): 22 ×10^3 cells/g
2 | C[C@@H](O)[C@H](N)C(=O)NCC(=O)N[C@H](C(=O)NCC(N)=O)[C@@H](C)O [comparative sample 2, TGTG-CONH2, reference compound] (H-TGTG-NH2) | >100 µM | >100 µM | 
3 | Ac-RKKKRKVLMWWMLR-NH2 [sample 8, Ac-RKKKRKVLMWWMLR-CONH2] | 12.5 µM | 3.1 µM | Antimicrobial Activities (MIC) against S. aureus, horse serum concentration 10% (S. aureus): 3.1 µM; Antimicrobial Activities (MIC) against S. aureus, horse serum concentration 50% (S. aureus): 6.3 µM
4 | H-LKRKLQRLMWWML-NH2 [sample 15, LKRKLQRLMWWML-CONH2] | 12.5 µM | 3.1 µM | Antimicrobial Activities (MIC) against S. aureus, horse serum concentration 10% (S. aureus): 6.3 µM
5 | H-LKRKLQRLMWWMLR-NH2 [sample 18, LKRKLQRLMWWMLR-CONH2] | 12.5 µM | 6.3 µM | 
6 | H-LMWWML-NH2 [comparative sample 3, LMWWML-CONH2, reference compound] | >100 µM | >100 µM | 
7 | H-LMWWMLRIRKKLR-NH2 [sample 4, LMWWMLRIRKKLR-CONH2] | 6.3 µM | 3.1 µM | Antimicrobial Activities (MIC) against S. aureus, horse serum concentration 10% (S. aureus): 6.3 µM
8 | H-LMWWMLRIRKKLRVGR-NH2 [sample 20, LMWWMLRIRKKLRVGR-CONH2] | 6.3 µM | 3.1 µM | 
9 | H-LMWWMLRKKKRKV-NH2 [sample 5, LMWWMLRKKKRKV-CONH2] | 50 µM | 3.1 µM | 
10 | H-RAVTLYLGAVAA-NH2 [comparative sample 4, RAVTLYLGAVAA-CONH2, reference compound] |  |  | Antimicrobial Activities (MIC) E. coli [2, 4]: >100 µM; Antimicrobial Activities (MIC) S. aureus [3, 4]: >100 µM
11 | H-RGDLMWWMLAR-NH2 [comparative sample 1, RGDLMWWMLAR-CONH2, reference compound] | >100 µM | >100 µM | Antimicrobial Activities (MIC) against S. aureus, horse serum concentration 10% (S. aureus): >50 µM
12 | H-RIRKKLRLMWWMLAR-NH2 [sample 7, RIRKKLRLMWWMLAR-CONH2] | 6.3 µM | 3.1 µM | Antimicrobial Activities (MIC) against S. aureus, horse serum concentration 10% (S. aureus): 3.1 µM; Antimicrobial Activities (MIC) against S. aureus, horse serum concentration 20% (S. aureus): 6.3 µM; Antimicrobial Activities (MIC) against S. aureus, horse serum concentration 50% (S. aureus): 6.3 µM
13 | H-RIRKKLRLMWWMLR-NH2 [sample 14, RIRKKLRLMWWMLR-CONH2] | 6.3 µM | 3.1 µM | Antimicrobial Activities (MIC) against S. aureus, horse serum concentration 10% (S. aureus): 6.3 µM
14 | H-RIRKKLRYIGSR-NH2 [comparative sample 6, RIRKKLRYIGSR-CONH2, reference compound] | >100 µM | 50 µM | 
15 | H-RKKKRKVFFYMVIR-NH2 [sample 11, RKKKRKVFFYMVIR-CONH2] | 6.3 µM | 3.1 µM | 
16 | H-RKKKRKVLLTAKMR-NH2 [sample 10, RKKKRKVLLTAKMR-CONH2] | 50 µM | 12.5 µM | 
17 | H-RKKKRKVLMWWML-NH2 [sample 2, RKKKRKVLMWWML-CONH2] | 12.5 µM | 3.1 µM | 
18 | H-RKKKRKVLMWWMLAR-NH2 [sample 6, RKKKRKVLMWWMLAR-CONH2] |  |  | Antimicrobial Activities (MIC) E. coli [2, 4]: 12.5 µM; Antimicrobial Activities (MIC) S. aureus [3, 4]: 6.3 µM; Antimicrobial Activities (MIC) against S. aureus, horse serum concentration 10% (S. aureus; horse serum 10%): 3.1 µM; Antimicrobial Activities (MIC) against S. aureus, horse serum concentration 20% (S. aureus; horse serum 20%): 3.1 µM; Antimicrobial Activities (MIC) against S. aureus, horse serum concentration 50% (S. aureus; horse serum 50%): 1.6 µM
19 | H-RKKKRKVLMWWMLKPV-NH2 [sample 21, RKKKRKVLMWWMLKPV-CONH2] |  |  | Antimicrobial Activities (MIC) against S. aureus, horse serum concentration 10% (S. aureus): 1.6 µM; antimicrobial activity against S. aureus in the presence of serum, in words (S. aureus; horse serum, Table 3): particularly high antimicrobial activity
20 | H-RKKKRKVLMWWMLR-OH [sample 16, RKKKRKVLMWWMLR-COOH] | 12.5 µM | 3.1 µM | Antimicrobial Activities (MIC) against S. aureus, horse serum concentration 10% (S. aureus): 3.1 µM
21 | H-RKKKRKVLYLGAVR-NH2 [sample 12, RKKKRKVLYLGAVR-CONH2] | 50 µM | 12.5 µM | 
22 | H-RKKKRKVVVYWLLR-NH2 [sample 9, RKKKRKVVVYWLLR-CONH2] | 12.5 µM | 3.1 µM | 
23 | H-RKKKRKVYIGSR-NH2 [comparative sample 7, RKKKRKVYIGSR-CONH2, reference compound] | 100 µM | 12.5 µM | 
24 | H-RKKRRQRRRLMWWML-NH2 [sample 19, RKKRRQRRRLMWWML-CONH2] | 12.5 µM | 6.3 µM | 
25 | H-RKRKRKRLMWWML-NH2 [sample 13, RKRKRKRLMWWML-CONH2] | 6.3 µM | 3.1 µM | 
26 | H-RKRRLMWWMLKKLR-NH2 [sample 17, RKRRLMWWMLKKLR-CONH2] | 6.3 µM | 3.1 µM | 
27 | H-RLLTAKMLMWWMLR-NH2 [comparative sample 5, RLLTAKMLMWWMLR-CONH2, reference compound] | >100 µM | 12.5 µM | 
28 | polymyxin B [reference compound] |  |  | Antimicrobial Activities (MIC) E. coli [2, 4]: 1.6 µM; Antimicrobial Activities (MIC) S. aureus [3, 4]: 6.3 µM; Antimicrobial Activities (MIC) against S. aureus, horse serum concentration 10% (S. aureus; horse serum 10%): 6.3 µM; Antimicrobial Activities (MIC) against S. aureus, horse serum concentration 20% (S. aureus; horse serum 20%): 6.3 µM; Antimicrobial Activities (MIC) against S. aureus, horse serum concentration 50% (S. aureus; horse serum 50%): 3.1 µM

From US7674771B2, “Antimicrobial peptides and utilization of the same” (Toagosei Co., Ltd, priority 2003, dated 2010)
